What was measured:
[1] = system: ER; settings: fold over TAM; cited from earlier work
[2] = system: NSCLC cell lines; assay: NCI five-dose assay, NSCLC subpanel; format: cell-based; settings: Homo sapiens
Experimental: (§1) All compounds were subjected to the NCI in vitro disease-oriented human cells screening panel assay. The human tumor cell lines of the cancer-screening panel are grown in RPMI 1640 medium containing 5% fetal bovine serum and 2 mM L-glutamine. For a typical screening experiment, cells are inoculated into 96-well microtiter plates in 100 μL at plating densities ranging from 5000 to 40,000 cells/well depending on the doubling time of individual cell lines. After cell inoculation, the microtiter plates are incubated at 37 °C, 5% CO2, 95% air, and 100% relative humidity for 24 h prior to the addition of experimental drugs. After 24 h, two plates of each cell line are fixed in situ with TCA to represent a measurement of the cell population for each cell line at the time of drug addition. Experimental drugs are solubilized in dimethyl sulfoxide at 400-fold the desired final maximum test concentration and stored frozen prior to use. At the time of drug addition, an aliquot of frozen concentrate is thawed and diluted to twice the desired final maximum test concentration with complete medium containing 50 μg/mL gentamicin. […] Bound stain is subsequently solubilized with a 10 mM trizma base, and the absorbance is read on an automated plate reader at a wavelength of 515 nm. […] Three response parameters (GI50, TGI, and LC50) were calculated for each cell line.

[3] = system: MCF-7 cells; assay: NCI growth inhibition on MCF-7 (single dose and five-dose, SRB); format: cell-based, human; settings: Homo sapiens, MCF7
Experimental: Compounds were submitted to the Developmental Therapeutics Program (DTP) of the National Cancer Institute (NCI). The program uses a panel of 60 human tumor cell lines representing nine tissue types, including leukemia, non-small cell lung cancer (NSCLC), melanoma, colon cancer, ovarian cancer, CNS cancer, renal cancer, prostate cancer, and breast cancer, to screen for potential new anti-cancer agents. […] Primary screening of synthesized compounds was performed by testing a single high dose of 10 µM in the full NCI-60 panel. The percent growth of treated cells relative to the no-drug control and relative to the time zero number of cells was measured, and a mean graph was provided. The percentage inhibition was then calculated by subtracting the values obtained from 100.
All compounds were subjected to the NCI in vitro disease-oriented human cells screening panel assay. The human tumor cell lines of the cancer-screening panel are grown in RPMI 1640 medium containing 5% fetal bovine serum and 2 mM L-glutamine. For a typical screening experiment, cells are inoculated into 96-well microtiter plates in 100 μL at plating densities ranging from 5000 to 40,000 cells/well depending on the doubling time of individual cell lines. After cell inoculation, the microtiter plates are incubated at 37 °C, 5% CO2, 95% air, and 100% relative humidity for 24 h prior to the addition of experimental drugs. After 24 h, two plates of each cell line are fixed in situ with TCA to represent a measurement of the cell population for each cell line at the time of drug addition. Experimental drugs are solubilized in dimethyl sulfoxide at 400-fold the desired final maximum test concentration and stored frozen prior to use. At the time of drug addition, an aliquot of frozen concentrate is thawed and diluted to twice the desired final maximum test concentration with complete medium containing 50 μg/mL gentamicin. Additional four, 10-fold, or ½ log serial dilutions are made to provide a total of five drug concentrations plus control. Aliquots of 100 μL of these different drug dilutions are added to the appropriate microtiter wells already containing 100 μL of medium, resulting in the required final drug concentrations. Following drug addition, the plates are incubated for an additional 48 h at 37 °C, 5% CO2, 95% air, and 100% relative humidity. For adherent cells, the assay is terminated by the addition of cold TCA. Cells are fixed in situ by the gentle addition of 50 μL of cold 50% (w/v) TCA (final concentration, 10% TCA) and incubated for 60 min at 4 °C. The supernatant is discarded, and the plates are washed five times with tap water and air-dried. Sulforhodamine B (SRB) solution (100 μL) at 0.4% (w/v) in 1% acetic acid is added to each well, and plates are incubated for 10 min at room temperature. After staining, unbound dye is removed by washing five times with 1% acetic acid, and the plates are air-dried. Bound stain is subsequently solubilized with a 10 mM trizma base, and the absorbance is read on an automated plate reader at a wavelength of 515 nm. For suspension cells, the methodology is the same except that the assay is terminated by fixing settled cells at the bottom of the wells by gently adding 50 μL of 80% TCA (final concentration, 16% TCA). Compounds are screened at a dose of 10 µM, hits showing mean growth inhibition over 60 cell lines >50% are escalated for 5-dose screening assay. To construct a dose-response curve, about 60 cell lines of nine tumor subpanels were incubated with five concentrations (0.01–100 μM) for each compound. Three response parameters (GI50, TGI, and LC50) were calculated for each cell line.

[4] = system: colon cancer cell lines; assay: NCI five-dose assay, colon cancer subpanel; format: cell-based; settings: Homo sapiens
Experimental: as §1

[5] = system: renal cell lines; assay: NCI five-dose assay, renal subpanel; format: cell-based; settings: Homo sapiens
Experimental: as §1

[6] = system: prostate cell lines; assay: NCI five-dose assay, prostate subpanel; format: cell-based; settings: Homo sapiens
Experimental: as §1

SMILES | affinity to the ER compared to the parent drug TAM (times) [1] | GI50 [2] | inhibition at 10 µM ([3]; 10 µM) | GI50 ([3]; MCF-7, five-dose assay, 48 h) | GI50 [4] | GI50 [5] | GI50 [6]
CC/C(=C(\c1ccc(O)cc1)c1ccc(OCCN(C)C)cc1)c1ccccc1 [Compound 4-OH-TAM, 4-hydroxy-TAM] | 100 | – | – | – | – | – | –
CC/C(=C(\c1ccccc1)c1ccc(OCCN(C)C)cc1)c1ccccc1 [TAM, Tamoxifen, reference compound] | – | 6.31 µM | > 100% | 1.58 µM | 6.31 µM | 5 µM | 5.35 µM
CC/C(=C(\c1ccc(O)cc1)c1ccc(OCCNC)cc1)c1ccccc1 [endoxifen] | 100 | – | – | – | – | – | –

— publication PMC8621172, “Manipulating Estrogenic/Anti-Estrogenic Activity of Triphenylethylenes towards Development of Novel Anti-Neoplastic SERMs” (International Journal of Molecular Sciences, 2021)
